From patent US5888405A, “Methods for controlling biofouling using amino methyl phosphonic acids” (Buckman Laboratories International Inc., priority 1997, dated 1999)
Where “and” joins values, the source holds several entries; their conditions need not be identical. Identical values can stand only once. Like-named read-outs stand apart in the source and are kept apart here.

Key:
Format in all cases: cell-based
[1] = system: Bacteria of the genera Bacillus, Flavobacterium, and Pseudomonas; assay: Quantitative method of evaluation of bacterial adhesion (crystal violet absorbance, % IBA), Example 4; settings: for inhibition at 100 ppm: 168 h; for Score (% IBA), inhibition of bacterial adhesion: 100 ppm
From the text: (§1) The following method effectively defines the ability of a chemical compound to inhibit bacterial adhesion, or attack the formation of existing attached microorganisms, on various types of surfaces. As an overview, bioreactors were constructed in which approximately 1 in.×3 in. slides (glass or stainless steel) were fixed to the edge of the bioreactor. The lower ends (approx. 2 in.) of the slides dipped into a bacterial growth medium (pH 7) within the bioreactor which contained a known concentration of the test chemical. Following inoculation with known bacterial species, the test solutions were stirred continuously for 3 days. Unless otherwise indicated in the results below, the medium within the bioreactor was turbid by the end of three days. […] A staining procedure was then used on the slides in order to determine the amount of bacteria attached to the surfaces of the slides.
(§2) The bioreactors comprised a 400 ml glass beaker over which a lid (cover from a standard 9 cm diameter glass petri dish) was placed. With the lid removed, slides of the material of choice were taped at one end with masking tape and suspended inside the bioreactor from the top edge of the beaker. This allows the slides to be submerged within the test medium. Typically, four slides (replicates) were uniformly spaced around the bioreactor. The score presented below are the average of the four replicates. A magnetic stirring bar was placed in the bottom of the unit, the lid positioned, and the bioreactor autoclaved. Two different types of material were used as slides, stainless steel as a metal and glass as a hydrophilic surface.
(§3) The liquid medium utilized in the bioreactors was described previously by Delaquis, et al., "Detachment Of Pseudomonas fluorescens From Biofilms On Glass Surfaces In Response To Nutrient Stress", Microbial Ecology 18:199-210, 1989. The composition of the medium was:
(§4) The medium was autoclaved and then allowed to cool. If a sediment formed in the autoclaved medium, the medium was resuspended by shaking before use.
(§5) Bacteria of the genera Bacillus, Flavobacterium, and Pseudomonas were isolated from a paper mill slime deposit and maintained in continuous culture. The test organisms were separately streaked onto plate count agar and incubated at 30° C. 24 hours. With a sterile cotton swab, portions of the colonies were removed and suspended in sterile water. The suspensions were mixed very well and were adjusted to an optical density of 0.858 (Bacillus), 0.625 (Flavobacterium), and 0.775 (Pseudomonas) at 686 nm.
(§6) Biofilm Production/Chemical Testing: To four separate bioreactors was added 200 ml of the sterile medium prepared above. Chemicals to be evaluated as biodispersants were first prepared as a stock solution (40 mg/2 ml) using either water or a 9:1 acetone:methanol mixture (ac/MeOH) as a solvent. A 1.0 ml aliquot of the stock solution was added to the bioreactor using moderate, continuous magnetic stirring. This provided an initial concentration of 100 ppm for the test compound. One bioreactor (Control) contains no test compound. Aliquots (0.5 ml) from each of the three bacterial suspensions were then introduced into each bioreactor. The bioreactors were then provided with continuous stirring for three days to allow for an increase in bacterial population and deposition of cells onto the surfaces of the slides.
The test method, construction of bioreactors, bacterial growth medium, preparation of bacterial inocula, and biofilm/chemical testing are the same as those in EXAMPLE 3.
After 48 h or 168 h (1 week) of incubation at 26°-28° C. the slides were removed from the bioreactors and were positioned vertically to […] using a staining procedure. The slides were briefly flamed in order to fix the cells to the surface, and then transferred for one minute to a container of Gram Crystal Violet (DIFCO Laboratories, Detroit, Mich.). […]

[2] = system: Bacteria of the genera Bacillus, Flavobacterium, and Pseudomonas; assay: Bacterial adhesion to submerged slides in bioreactor, Gram Crystal Violet staining, visual biofilm score (Example 3); parameters: scale not given here; settings: 100 ppm, acetone, 3 days, pH 7, average of four replicates, control 3-4
From the text: as §1, §2, §3, §4, §5, §6
After the test was completed, the slides were removed from the bioreactors and were positioned vertically to permit air drying. The degree of adhesion of bacteria to the test surface was then estimated using a staining procedure. The slides were briefly flamed in order to fix the cells to the surface, and then transferred for two minutes to a container of Gram Crystal Violet (DIFCO Laboratories, Detroit, Mich.). The slides were gently rinsed under running tap water, and then carefully blotted. The degree of bacterial adhesion was then determined by visual examination and subjective scoring of each slide. […]

E. Aerogenes = assay: Minimum inhibitory concentration, 18 hour Basal Salts test; settings: for MIC: Klebsiella aerogenes, 18 h
Experimental: ^1 Minimum inhibitory concentration (MIC) for each compound against
the bacteria E. Aerogenes using an 18 hour Basal Salts test at pH 6 and p

[3] = glass slides, acetone, 168 h incubation at 26-28° C., 50% or greater considered effective
[4] = stainless steel (SS) slides, acetone, 168 h incubation at 26-28° C., 50% or greater considered effective

Row | MIC (E. Aerogenes; pH 6, pH 6, read-out: Minimum inhibitory concentration (MIC)) [µg/mL] | Compound | inhibition at 100 ppm ([1]; read-out: Score (% IBA), inhibition of bacterial adhesion, glass slides, acetone, 168 h incubation at 26-28° C., 50% or greater considered effective) [%] | inhibition at 100 ppm ([1]; read-out: Score (% IBA), inhibition of bacterial adhesion, stainless steel (SS) slides, acetone, 168 h incubation at 26-28° C., 50% or greater considered effective) [%] | Score (biofilm score, bacterial adhesion) ([2]; glass slides) | Score (biofilm score, bacterial adhesion) ([2]; stainless steel (SS) slides) | MIC (E. Aerogenes; pH 8, read-out: Minimum inhibitory concentration (MIC), pH 8) [µg/mL] | inhibition at 100 ppm ([1]; glass slides, acetone, 168 h incubation at 26-28° C., 50% or greater considered effective, read-out: Score (% IBA), inhibition of bacterial adhesion) [%] | inhibition at 100 ppm ([1]; stainless steel (SS) slides, acetone, 168 h incubation at 26-28° C., 50% or greater considered effective, read-out: Score (% IBA), inhibition of bacterial adhesion) [%] | Score (% IBA), inhibition of bacterial adhesion [1, 3] [% IBA] | Score (% IBA), inhibition of bacterial adhesion [1, 4] [% IBA] | Minimum inhibitory concentration (MIC) (E. Aerogenes; pH 8) | Minimum inhibitory concentration (MIC) (E. Aerogenes; pH 6)
1 |  | O=P(O)(O)CN1CCOCC1 [e] | 52 | 33 | 3 | 3 and 2.3 | > 500 |  |  |  |  |  | 
2 | > 100 | CCCCCCCCN(CCCCCCCC)CP(=O)(O)O [g, dioctyl amino methyl phosphonic acid] |  |  | 2.0 |  |  | 78 | 67 |  |  |  | 
3 |  | butyl amino methyl phosphonic acid |  |  |  |  |  |  |  | 21 | 36 | > 500 | 
4 |  | decyl amino methyl phosphonic acid |  |  | 2.25 | 1.25 and 2.3 |  |  |  | 5 | 62 | > 500 | > 100
5 |  | dodecyl amino methyl phosphonic acid |  |  |  | 3 and 4 |  |  |  | 43 | 54 | > 500 | > 100
6 |  | hexyl amino methyl phosphonic acid |  |  | 3.0 | 1.0 and 2.0 |  |  |  | 36 | 42 | > 500 | > 100
7 |  | octadecyl amino methyl phosphonic acid [f] |  |  |  | 2.25 and 2.70 |  |  |  | 81 | 39 | > 500 | > 100
